Results from ChEMBL document CHEMBL4402613, “Targeting ALK2: An Open Science Approach to Developing Therapeutics for the Treatment of Diffuse Intrinsic Pontine Glioma” (J Med Chem, 2020).
Active and inactive are the calls of the source. The calls are words filed in the database; no cut-off is given here.

Tests used:
Activin receptor type-1 = biological target: T1, Activin receptor type-1 (Homo sapiens, UniProt Q04771); experiment: Inhibition of C-terminal nanoluciferase-fused ALK2 (unknown origin) expressed in HEK293 cells incubated for 2 hrs followed by NanoBRET NanoGlo Substrate addition by NanoBRET assay; type: cell-based
T1 sequence (Q04771 whole entry): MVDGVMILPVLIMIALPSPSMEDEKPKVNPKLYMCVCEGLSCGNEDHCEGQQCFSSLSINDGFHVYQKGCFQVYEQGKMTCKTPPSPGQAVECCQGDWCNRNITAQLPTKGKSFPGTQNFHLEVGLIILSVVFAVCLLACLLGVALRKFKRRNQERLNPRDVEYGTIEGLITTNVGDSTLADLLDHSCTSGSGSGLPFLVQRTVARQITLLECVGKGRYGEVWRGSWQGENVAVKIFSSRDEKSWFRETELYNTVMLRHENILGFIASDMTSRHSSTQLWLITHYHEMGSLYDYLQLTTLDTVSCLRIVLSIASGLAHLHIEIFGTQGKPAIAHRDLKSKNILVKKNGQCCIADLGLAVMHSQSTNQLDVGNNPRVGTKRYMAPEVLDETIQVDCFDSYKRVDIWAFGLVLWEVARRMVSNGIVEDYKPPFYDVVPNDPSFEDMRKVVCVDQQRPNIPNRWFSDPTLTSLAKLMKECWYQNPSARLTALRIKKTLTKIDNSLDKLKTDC

TGF-beta receptor type-1 = biological target: T2, TGF-beta receptor type-1 (Homo sapiens, UniProt P36897); type: cell-based, HEK293
T2 sequence (P36897 whole entry): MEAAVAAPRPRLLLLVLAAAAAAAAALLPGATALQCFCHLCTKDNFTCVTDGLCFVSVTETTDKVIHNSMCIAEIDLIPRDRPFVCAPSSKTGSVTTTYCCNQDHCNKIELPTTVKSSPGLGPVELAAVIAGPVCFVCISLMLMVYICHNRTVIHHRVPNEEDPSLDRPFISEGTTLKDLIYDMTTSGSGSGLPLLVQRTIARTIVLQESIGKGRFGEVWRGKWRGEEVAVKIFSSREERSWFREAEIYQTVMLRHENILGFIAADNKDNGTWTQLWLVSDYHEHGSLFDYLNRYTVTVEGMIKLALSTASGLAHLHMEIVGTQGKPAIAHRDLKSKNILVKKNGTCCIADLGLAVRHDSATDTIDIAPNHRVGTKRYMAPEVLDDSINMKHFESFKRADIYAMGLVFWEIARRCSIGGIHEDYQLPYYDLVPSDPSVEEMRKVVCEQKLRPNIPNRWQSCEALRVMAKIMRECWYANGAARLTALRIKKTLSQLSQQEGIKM
Description: Inhibition of ALK5 (unknown origin) expressed in HEK293 cells transfected with CAGA-luciferase and Renilla luciferase reporter measured after 24 hrs by dual luciferase reporter assay

[1] = biological target: Activin receptor type-1-like (Homo sapiens) (UniProt P37023); experiment: Inhibition of ALK1 (unknown origin) at 1 uM
Cytochrome P450 2B6 = biological target: T3, Cytochrome P450 2B6 (Homo sapiens, UniProt P20813)
T3 sequence (P20813 whole entry): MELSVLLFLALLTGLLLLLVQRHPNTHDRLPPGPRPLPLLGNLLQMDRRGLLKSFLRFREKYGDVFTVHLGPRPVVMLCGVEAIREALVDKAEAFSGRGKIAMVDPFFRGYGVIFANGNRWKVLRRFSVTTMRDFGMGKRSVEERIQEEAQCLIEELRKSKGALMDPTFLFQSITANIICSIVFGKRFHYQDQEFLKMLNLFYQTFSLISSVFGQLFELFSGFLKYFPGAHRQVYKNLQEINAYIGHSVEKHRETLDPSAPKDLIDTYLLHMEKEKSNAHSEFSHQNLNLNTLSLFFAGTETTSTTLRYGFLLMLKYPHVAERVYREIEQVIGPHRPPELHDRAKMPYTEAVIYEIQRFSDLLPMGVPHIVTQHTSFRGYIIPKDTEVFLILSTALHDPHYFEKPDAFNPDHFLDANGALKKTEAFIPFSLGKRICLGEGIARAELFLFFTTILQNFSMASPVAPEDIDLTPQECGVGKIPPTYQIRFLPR
Description: Inhibition of CYP2B6 in human liver microsomes using bupropion as substrate incubated for 40 mins in presence of NADPH by LC-MS/MS analysis

[2] = mouse, in vivo, po, 10 mg/kg, 24 h
[3] = mouse, in vivo, po, 10 mg/kg, 24 h; remark: listed apart in the source
[4] = mouse, brain, po, 100 mg/kg, 4 h
Description: Ratio of total drug concentration from brain to plasma in CB17 SCID mouse at 100 mg/kg, po measured after 4 hrs

Activin receptor type-1-like (Homo sapiens), sequence (P37023 whole entry): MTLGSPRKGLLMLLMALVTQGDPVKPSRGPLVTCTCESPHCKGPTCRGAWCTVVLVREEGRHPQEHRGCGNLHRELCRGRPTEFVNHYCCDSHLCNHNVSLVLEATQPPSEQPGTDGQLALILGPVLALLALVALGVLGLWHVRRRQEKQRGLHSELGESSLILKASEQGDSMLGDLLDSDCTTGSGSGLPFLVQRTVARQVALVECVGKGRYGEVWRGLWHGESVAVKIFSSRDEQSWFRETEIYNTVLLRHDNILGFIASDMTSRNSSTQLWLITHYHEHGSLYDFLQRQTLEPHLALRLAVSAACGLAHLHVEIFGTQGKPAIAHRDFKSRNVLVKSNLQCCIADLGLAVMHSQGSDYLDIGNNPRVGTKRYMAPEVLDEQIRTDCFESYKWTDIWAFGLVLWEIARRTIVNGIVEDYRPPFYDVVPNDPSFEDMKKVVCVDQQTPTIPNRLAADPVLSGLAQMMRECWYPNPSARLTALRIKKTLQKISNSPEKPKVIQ

COc1cc(-c2cncc(-c3ccc(N4CCN(C)CC4)cc3)c2C)cc(F)c1C(N)=O
IC50 (Activin receptor type-1): 0.093 µM
IC50 (TGF-beta receptor type-1): 4.3 µM
inhibition [1]: Active
IC50 (Cytochrome P450 2B6): > 50 µM
Cmax [2]: 2140 ng/mL
AUC [3]: 4056 ng·h/mL
BPR [4]: 0.178
